Test results as given in patent publication US8513233B2, “Pyrimidinyl-propionic acid derivatives and their use as PPAR agonists” (Shanghai Institute of Materia Medica, CAS, priority 2007, dated 2013).

Tests used:
HepG2 = test: Growth inhibition, modified MTT assay, HepG2; assay type: cell-based; conditions: Homo sapiens, mean of 3 independent tests
Outline: (§1)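 Cells seeded 24 h in 10% FCS medium, switched to serum-free medium for 24 h, then exposed to graded compound concentrations in triplicate. Viability read by MTT (4 h), formazan dissolved in DMSO, OD at 492 nm; IC50 from sigmoidal fit, mean of 3 independent tests.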

MCF-7 = test: Growth inhibition, modified MTT assay, MCF-7; assay type: cell-based; conditions: Homo sapiens, MCF7; MCF-7, MTT, mean of 3 independent tests
Outline: as §1

SPC-A1 = test: Growth inhibition, modified MTT assay, SPC-A1; assay type: cell-based; conditions: SPCA1, mean of 3 independent tests
Outline: as §1

[1] = tested on: Han:SPRD rats, animal model of ADPKD; test: Administration of rosiglitazone on the Han:SPRD rats (earlier study); assay type: in vivo, rat; conditions: when they died, chronic high dose
T24 = test: Growth inhibition, modified MTT assay, T24; assay type: cell-based; conditions: Homo sapiens, T-24, mean of 3 independent tests
Outline: as §1

PPAR-γ = molecular target: T1, PPAR-γ (Homo sapiens, UniProt P37231); test: Transient transfection and transcription assay (luciferase reporter, U2OS cells); assay type: cell-based; conditions: 24 h treatment
T1 construct: expressed in transfected cells; host or cells: U2OS cells, transiently transfected with pcDNA3.1 expression vectors (FuGene6)
T1 sequence (P37231 1-505): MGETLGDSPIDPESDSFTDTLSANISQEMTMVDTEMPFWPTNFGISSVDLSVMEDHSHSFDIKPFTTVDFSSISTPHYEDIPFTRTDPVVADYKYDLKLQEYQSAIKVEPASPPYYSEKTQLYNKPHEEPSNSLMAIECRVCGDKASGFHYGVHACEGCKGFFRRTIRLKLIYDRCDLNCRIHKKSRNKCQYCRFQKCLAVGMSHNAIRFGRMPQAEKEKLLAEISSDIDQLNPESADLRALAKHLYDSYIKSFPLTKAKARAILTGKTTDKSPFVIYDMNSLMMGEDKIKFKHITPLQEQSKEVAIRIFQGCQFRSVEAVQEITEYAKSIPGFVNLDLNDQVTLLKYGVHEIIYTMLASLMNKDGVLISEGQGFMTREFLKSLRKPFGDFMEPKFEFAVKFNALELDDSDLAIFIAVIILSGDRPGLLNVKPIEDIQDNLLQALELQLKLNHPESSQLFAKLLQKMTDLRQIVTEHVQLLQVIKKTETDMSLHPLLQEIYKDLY
T1 sequence (P19793 1-462 partner): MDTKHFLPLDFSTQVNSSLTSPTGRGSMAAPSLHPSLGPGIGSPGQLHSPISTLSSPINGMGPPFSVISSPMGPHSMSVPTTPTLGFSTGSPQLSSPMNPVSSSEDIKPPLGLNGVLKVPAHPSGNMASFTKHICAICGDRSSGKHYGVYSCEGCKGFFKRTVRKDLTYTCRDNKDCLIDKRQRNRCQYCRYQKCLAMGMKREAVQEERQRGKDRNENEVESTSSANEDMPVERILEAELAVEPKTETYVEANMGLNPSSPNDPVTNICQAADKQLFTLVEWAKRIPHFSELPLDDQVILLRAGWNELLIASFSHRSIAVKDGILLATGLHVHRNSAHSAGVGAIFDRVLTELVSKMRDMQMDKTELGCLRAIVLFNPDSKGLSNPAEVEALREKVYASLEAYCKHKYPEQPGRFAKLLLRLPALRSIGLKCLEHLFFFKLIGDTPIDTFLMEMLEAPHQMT

[2] = tested on: human renal epithelial cells (HKC); conditions: cited from earlier work
[3] = tested on: ADPKD cyst-lining epithelia; conditions: dose-dependent and time-dependent; cited from earlier work

SMILES	IC50 (HepG2)	IC50 (MCF-7)	IC50 (SPC-A1)	heart and liver weight [1]	IC50 (T24)	melting point	EC50 (PPAR-γ)	effect on human renal epithelial cells (HKC) [2]	apoptosis of ADPKD cyst-lining epithelia [3]	proliferation of ADPKD cyst-lining epithelia [3]
CN(CCOc1ccc(CC2SC(=O)NC2=O)cc1)c1ccccn1 (centres unmarked) [Rosiglitazone, reference compound]	80.2 µM	45.6 µM	59.8 µM	heart and liver weight gain	69 µM	–	–	–	–	–
CC(Cc1ccc(Oc2cc(N3CCN(CC(=O)c4ccccc4)CC3)nc(N)n2)cc1)(Oc1ccccc1)C(=O)O (centres unmarked) [Compound 18, 3-{4-{2-Amino-6-[4-(2-oxo-2-phenyl-ethyl)-piperazin-1-yl]-pyrimidin-4-yloxy}-phenyl}-2-methyl-2-phenoxy-propionic acid]	> 50 µM	> 50 µM	> 50 µM	–	> 50 µM	107 to 108 °C	6.46 µM	–	–	–
CCCCC/C=C/C=C1/C(=O)C=C[C@@H]1C/C=C\CCCC(=O)O [Compound 15d-PGJ2, 15d-PGJ2]	–	–	–	–	–	–	–	relatively weak	induce apoptosis	inhibit the proliferation
CC(Cc1ccc(Oc2cc(N3CCN(Cc4ccccc4)CC3)nc(Oc3ccccc3)n2)cc1)(Oc1ccccc1)C(=O)O (centres unmarked) [Compound 43, 3-{4-[6-(4-Benzyl-piperazin-1-yl)-2-phenoxy-pyrimidin-4-yloxy]-phenyl}-2-methyl-2-phenoxy-propionic acid]	> 50 µM	33.5 µM	32.5 µM	–	> 50 µM	126 to 128 °C	1.62 µM	–	–	–
CC(Cc1ccc(Oc2cc(Oc3ccccc3)nc(N3CCN(Cc4ccccc4)CC3)n2)cc1)(Oc1ccccc1)C(=O)O (centres unmarked) [Compound 44, 3-{4-[2-(4-Benzyl-piperazin-1-yl)-6-phenoxy-pyrimidin-4-yloxy]-phenyl}-2-methyl-2-phenoxy-propionic acid]	35.2 µM	15.4 µM	14.1 µM	–	11.1 µM	135 to 137 °C	4.68 µM	–	–	–
CC(Cc1ccc(Oc2cc(N3CCN(Cc4cccc(Cl)c4)CC3)nc(N)n2)cc1)(Oc1ccccc1)C(=O)O (centres unmarked) [Compound 11, 3-{4-{2-Amino-6-[4-(3-chloro-benzyl)-piperazin-1-yl]-pyrimidin-4-yloxy}-phenyl}-2-methyl-2-phenoxy-propionic acid]	> 50 µM	40.6 µM	47.6 µM	–	> 50 µM	87 to 89 °C	5.13 µM	–	–	–
CC(Cc1ccc(Oc2cc(N3CCN(Cc4cccc(F)c4)CC3)nc(N)n2)cc1)(Oc1ccccc1)C(=O)O (centres unmarked) [Compound 12, 3-{4-{2-Amino-6-[4-(3-fluoro-benzyl)-piperazin-1-yl]-pyrimidin-4-yloxy}-phenyl}-2-methyl-2-phenoxy-propionic acid]	> 50 µM	> 50 µM	> 50 µM	–	> 50 µM	113 to 115 °C	6.46 µM	–	–	–
CC(Cc1ccc(Oc2cc(N3CCN(Cc4ccc5c(c4)OCO5)CC3)nc(N)n2)cc1)(Oc1ccccc1)C(=O)O (centres unmarked) [Compound 5]	> 50 µM	> 50 µM	> 50 µM	–	> 50 µM	190 to 192 °C	6.46 µM	–	–	–
